Measurements as given in PMC8733726, “Dioctanoyl Ultrashort Tetrabasic β-Peptides Sensitize Multidrug-Resistant Gram-Negative Bacteria to Novobiocin and Rifampicin” (Frontiers in Microbiology, 2021).
≈ marks a conversion by molar mass, not a printed value. Like-named read-outs stand apart in the source and are kept apart here.

What was measured:
[1] = system: wild-type P. aeruginosa PAO1; assay: microbe, parasite or virus in culture; assay type: cell-based, Pseudomonas aeruginosa; settings: PAO1
Outline: (§1)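 Checkerboard in MHB with 5 × 10^5 CFU/mL inoculum, antibiotic and adjuvant each serially 2-fold diluted on crossed axes. Growth read as turbidity at 590 nm; FICI is the sum of each agent's MIC in combination divided by its MIC alone.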

[2] = system: wild-type A. baumannii ATCC 17978; assay: Checkerboard assay; assay type: cell-based, Acinetobacter baumannii; settings: ATCC 17978
Outline: as §1

[3] = system: wild-type E. coli ATCC 25922; assay: microbe, parasite or virus in culture; assay type: cell-based, Escherichia coli; settings: ATCC 25922
Outline: (§2)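 2-fold antibiotic × adjuvant checkerboard in MHB; inoculum 5 × 10^5 CFU/mL; 37°C, 18 h; OD590 read. FICI = FIC antibiotic + FIC adjuvant; ≤ 0.5 synergistic, 0.5 < x ≤ 4 additive, >4 antagonistic.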

[4] = system: MDR clinical isolates of P. aeruginosa; assay: Checkerboard assay, MDR clinical isolates; assay type: cell-based, Pseudomonas aeruginosa; settings: antibiotic alone
Description: (§3) The adjuvant activities of dUSTBβPs were evaluated using checkerboard assay as previously described ([Berry et al., 2019]). Overnight-grown bacterial culture diluted in saline to 0.5 McFarland turbidity was successively diluted 1:50 in MHB to achieve a final concentration of 5 × 10^5 CFU/mL for inoculation. The antibiotic and adjuvant were serially diluted 2-fold along the x-axis and y-axis, respectively, resulting in varying concentrations of both agents in each well. Subsequently, the 96-well plate was incubated with equal volumes of bacterial inoculum at 37°C for 18 h. Confirmation of turbidity was done using an EMax Plus microplate reader (Molecular Devices, United States) at a wavelength of 590 nm. Wells comprising MHB alone or in the presence of bacterial cells were used as negative or positive controls, respectively. Fractional inhibitory concentration index (FICI) is determined by adding the FICs of both antibiotic and adjuvant. The FIC of the antibiotic is calculated by dividing the MIC of the antibiotic in the presence of the adjuvant by the MIC of the antibiotic alone. Similarly, the FIC of the adjuvant is calculated by dividing the MIC of the adjuvant in the presence of the antibiotic by the MIC of the adjuvant alone. FICI ≤ 0.5, 0.5 < x ≤ 4, and >4 were deemed synergistic, additive, and antagonistic, respectively ([Meletiadis et al., 2010]).

[5] = system: MDR clinical isolates of A. baumannii; assay type: cell-based, Acinetobacter baumannii; settings: antibiotic alone
Outline: as §2

MDR E. coli = assay type: cell-based, Escherichia coli; settings: 94393; antibiotic alone
Description: as §3

MDR K. pneumoniae = assay type: cell-based, Klebsiella pneumoniae; settings: antibiotic alone
Description: as §3

MDR E. cloacae = assay: Checkerboard assay, MDR clinical isolates; assay type: cell-based, Enterobacter cloacae; settings: antibiotic alone
Description: as §3

MDR A. baumannii 110193 = assay: Time-kill assay; assay type: cell-based, Acinetobacter baumannii; settings: 32 μg/mL novobiocin or 0.5 μg/mL rifampicin alone
Description: (§4) Overnight-grown bacterial culture diluted in PBS to 0.5 McFarland turbidity was successively diluted 1:50 in lysogeny broth (LB). Cell cultures in the presence of dUSTBβP 3, novobiocin, or rifampicin, or combinations of adjuvant and antibiotic were incubated at 37°C. At designated intervals, 100 μL aliquots acquired from each culture tube were serially diluted in PBS and plated on LB agar plates.

[6] = system: wild-type A. baumannii ATCC 17978; assay: Time-kill assay; assay type: cell-based, Acinetobacter baumannii; settings: 32 μg/mL novobiocin or 0.5 μg/mL rifampicin alone
Description: as §4

[7] = in vivo; cited from earlier work
[8] = antibiotic with dUSTBβP 3 at 8 μg/mL

## CO[C@@H]1[C@@H](OC(N)=O)[C@@H](O)[C@H](Oc2ccc3c(O)c(NC(=O)c4ccc(O)c(CC=C(C)C)c4)c(=O)oc3c2C)OC1(C)C [Novobiocin]
[1]; antibiotic alone
  MICantibiotic: 1,024 μg/mL
[1]; [8]
  MICcombo: 32 µg/mL
[1]; Pseudomonas aeruginosa, 18 h, antibiotic alone (Supplementary Table 7), read-out: MICantibiotic
  MIC: 1020 µg/mL (≈ 1670 µM)
[2]; antibiotic alone
  MICantibiotic: 16 µg/mL
[2]; [8]
  MICcombo: 0.25 µg/mL
[2]; Acinetobacter baumannii, ATCC17978, 18 h, antibiotic alone (Supplementary Table 7), read-out: MICantibiotic
  MIC: 16 µg/mL
[3]; antibiotic alone
  MICantibiotic: 64 µg/mL
[3]; [8]
  MICcombo: 0.125 µg/mL
[3]; Escherichia coli, ATCC25922, 18 h, antibiotic alone (Supplementary Table 7), read-out: MICantibiotic
  MIC: 64 µg/mL
[4]; PA259-96196
  MICantibiotic: 1024 µg/mL
[4]; PA259-96196, listed as novobiocin
  MICantibiotic: 1,024 μg/mL
[4]; PA262-101856
  MICantibiotic: 1024 µg/mL
[4]; PA262-101856, listed as novobiocin
  MICantibiotic: 1,024 μg/mL
[4]; PA264-104354
  MICantibiotic: 1024 µg/mL
[4]; PA264-104354, listed as novobiocin
  MICantibiotic: 1,024 μg/mL
[4]; PA91433
  MICantibiotic: 1024 µg/mL
[4]; PA91433, listed as novobiocin
  MICantibiotic: 1,024 μg/mL
[4]; PA114228
  MICantibiotic: 1024 µg/mL
[4]; PA114228, listed as novobiocin
  MICantibiotic: 1,024 μg/mL
[5]; 92247
  MICantibiotic: 4 µg/mL
[5]; 110193
  MICantibiotic: 128 µg/mL
[5]; AB027
  MICantibiotic: 8 µg/mL
[5]; AB031
  MICantibiotic: 4 µg/mL
[5]; LAC-4
  MICantibiotic: > 0.5 µg/mL
[5]; LAC-4, listed as novobiocin
  MICantibiotic: 1 µg/mL
MDR E. coli
  MICantibiotic: 64 µg/mL
MDR K. pneumoniae; 113250
  MICantibiotic: 128 µg/mL
MDR K. pneumoniae; 113254
  MICantibiotic: 256 µg/mL
MDR K. pneumoniae; 116381
  MICantibiotic: 256 µg/mL
MDR E. cloacae; 117029
  MICantibiotic: 512 µg/mL
MDR E. cloacae; 118564
  MICantibiotic: 256 µg/mL
MDR E. cloacae; 121187
  MICantibiotic: 16 µg/mL
MDR A. baumannii 110193
  Time-kill outcome: Bacteriostatic
[6]
  Time-kill outcome: Bacteriostatic
[7]
  Steady-state serum concentration: 5 µg/mL
